Measured values reported in patent publication US20170340588A1, “MODULATION OF REGULATORY T CELLS VIA G-COUPLED PROTEIN RECEPTOR 43” (President and Fellows of Harvard College, priority 2013, published 2017).

Tests used:
[1] = system: colonic lamina propria Treg; assay: In vitro T cell stimulation of colonic Treg (RTqPCR, ELISA, proliferation); type: cell-based, mice
Procedure: Treg were isolated from the colon, small intestine, mesenteric lymph node or spleen of C57BL/6 Foxp3^YFP-Cre mice and FACS-sorted based on expression of YFP. RNA samples were prepared using the RNeasy Mini Kit (Qiagen) and cDNA was synthesized using the Bio-Rad iScript cDNA Synthesis Kit. Real-time (RT)-qPCR was performed using the KAPA SYBR FAST Universal qPCR Kit (KAPA Biosystems) and a Stratagene MX3005P (Agilent Technologies). The following primer sequences were used:
Colonic lamina propria Treg were isolated from C57BL/6 Foxp3^YFP-Cre mice as described above and FACS-sorted based on expression of YFP. Isolated Treg were cultured in RPMI 1640 medium supplemented with 10% FBS (Gibco), 4 mM L-glutamine, 80 U/ml penicillin, 80 μg/ml streptomycin, 1 mM sodium pyruvate, 10 mM HEPES and 1× nonessential amino acids (all obtained from Cellgro). Treg were stimulated with 1 μg/ml anti-CD3 antibody and with or without 0.1 mM sodium propionate for 24 h at 37° C. The division index is calculated by dividing the total number of cell divisions by the number of cells added at the start of the culture and represents the average number of divisions a cell from the original population has undergone and includes the undivided fraction in the calculation.
Cytokines were measured in culture supernatants using standard cytokines, antibodies and protocols. IL-10 was measured using the BD OptEIA ELISA Kit (BD Biosciences) and TGFβ1 levels were measured using the mouse TGF-beta 1 DuoSet (R&D Systems).

[2] = mouse, in vivo
Procedure: At the conclusion of the experiment mice were removed from isolators and processed immediately.
Cecal or small intestinal contents were collected immediately after animals were sacrificed and flash frozen in N2(1). Samples were mashed in 500 μl HPLC grade water and centrifuged at >14,000 x g, the resulting supernatant was then passed through a 0.22 μm syringe filter to remove bacterial cells and debris. Samples we then acidified with 1/10 volume of 0.01M H2SO4, heated and passed through a condenser to isolate volatile compounds within a sample. SCFA analyses were performed using an Agilent 1200 series HPLC and a Poroshell 120 SB C18 column (2.7 μm, 3.0×100mm) with guard column (Agilent Technologies). Sulfuric acid (0.01M) was used as the mobile phase. SCFA concentrations were weight corrected.

T cell transfer colitis = assay: T cell transfer model of colitis; type: in vivo, mice
Description: At Day 0, Naive CD4+CD25^−CD45RB^hi splenic T cells were FACS-sorted from BALB/c mice and injected i.p. into 6-8 week old BALB/c RAG2^−/− immunodeficient recipients (5×10^5 cells/mouse). At day 10, BALB/c RAG2^−/− immunodeficient recipients received CD4^+ CD25^+ CD45RB^lo splenic Treg cells (75,000/mouse) isolated from BALB/c or C57BL/6 mice Ffar2^+/+ and Ffar2^−/− mice where indicated. Mice were monitored weekly for weight loss and morbidity for 6-9 weeks as per the protocol's experimental endpoint guidelines.
Colons were excised and cleaned with DPBS prior to fixation in 4% PFA and then processed by routine paraffin embedding, sectioning and H&E staining. Colitis scores were determined by J.N.G., who was blinded to the experimental parameters. Each of 4 histologic parameters were scored as absent (0), mild (1), moderate (2), or severe (3): mononuclear cell infiltraton, polymorphonuclear cell infiltration, epithelial hyperplasia, and epithelial injury. The scores for the parameters were summed to generate the cumulative histologic colitis score as previously described.

colonic Treg (cTreg) [3] = assay: SPF SCFA intervention; flow cytometry of lymphocytes; type: in vivo, mice
Procedure: To isolate LP lymphocytes, small and large intestines were collected and opened longitudinally and washed with PBS to remove fecal contents. To remove epithelial cells, mucus and fat tissue, intestines were incubated 2 times in EDTA (5 mM)/DTT (1 mM)/Dulbecco's PBS (calcium and magnesium-free) solution (5 ml/colon) for 25 min at 37° C. Intestines were then minced and collagenase-digested two times for 45 min at 37° C. in RPMI containing 1 mg/ml collagenase type VIII (SIGMA), 25 μg/ml DNase I (Roche), 50 μg/ml Dispase (StemCell Technologies) and 0.01M HEPES (StemCell Technologies). The crude cell suspension was loaded onto a 40%/90% Percoll (GE Healthcare) gradient and centrifuged at 720 x g for 25 min at room temperature with acceleration and brake turned off. LP lymphocytes were collected from the 40%/90% interface.
Intracellular staining of the transcription factors Foxp3, Helios and T-bet was performed using the Foxp3 Fix/Perm Buffer Set (Biolegend). For detection of intracellular cytokines, cells were first stimulated for 4 h with 50 ng/ml PMA and 1 μg/ml ionomycin in the presence of Brefeldin A (All obtained from Sigma), followed by staining for surface markers. Cells were then fixed and permeabilized using the Foxp3 Fix/Perm Buffer Set (Biolegend) and stained for intracellular cytokines. The following antibodies were used: PE-labeled anti-Foxp3 (FJK-16s, eBioscience), Pacific Blue-labeled anti-Helios (22F6), PE-, FITC- or APC-labeled anti-CD4 (RM4-5), PECy7-labeled anti-CD3 (145-2C11), PE- or APC-labeled anti-IL-10 (JES5-16E3), PerCP-Cy5.5-labeled anti-IL-17 (TC11-18H10.1), APC- or PE-Cy7-labeled anti-IFNγ (XMG1.2), Pacific Blue-labeled anti-TGFβ1 (TW7-16B4), FITC-, PerCP-Cy5.5 or Pacific Blue-labeled anti-CD45 (30-F11), PerCP-Cy5.5 anti-CD45RB (C363-16A), PE- or FITC-labeled anti-CD25 (PC61), Brilliant Violet 421-labeled anti-CD127 (A7R34), GPR43 rabbit polyclonal (Abcam Catalog *Ab118449, and anti-rabbit IgG DyLight649 (Poly4064). […] Flow cytometry was performed using LSRII and data were analyzed with FlowJo software (TreeStar, Inc.). […]

colonic Treg (cTreg) [4] = assay: Ex vivo RTqPCR of cTreg from in vivo treated mice
Procedure: Science 341: 1645 (2013). […] Treg were isolated from the colon, small intestine, mesenteric lymph node or spleen of C57BL/6 Foxp3^YFP-Cre mice and FACS-sorted based on expression of YFP. […] Real-time (RT)-qPCR was performed using the KAPA SYBR FAST Universal qPCR Kit (KAPA Biosystems) and a Stratagene MX3005P (Agilent Technologies).

[5] = in vivo treated GF and SPF mice

## CCC(=O)O [Propionate, propionic acid]
[1]; Ffar2+/+ cTreg, 0.1 mM, 24 hours
  Foxp3 and IL-10 expression and IL-10 protein levels: enhanced
[1]; anti-CD3 and IL-2, 0.1 mM propionate
  cTreg proliferation: enhanced proliferation
[1]; cTreg from GF mice stimulated 24 hours in vitro, 0.1 mM
  Foxp3 and IL-10 expression in cTreg: significant increase
[1]; cTreg from GF mice, in vitro 24 hours, 0.1 mM, ELISA
  IL-10 production: increased
[1]; cTreg from SPF mice, 24 hours in vitro, 0.1 mM
  Foxp3 expression, IL-10 expression and IL-10 protein production: increases
[2]
  SCFA levels, SPF SI: 2.69 ± 0.24 µmol/g
  SCFA levels, SPF SI + P: 12.08 ± 3.69 µmol/g
  SCFA levels, cecal contents, ASF: 18.83 ± 2.72 µmol/g
  SCFA levels, cecal contents, GF: 1.46 ± 0.162 µmol/g
  SCFA levels, cecal contents, GF + Mic: 11.78 ± 6.38 µmol/g
  SCFA levels, cecal contents, GF + P: 14.93 ± 4.50 µmol/g
  SCFA levels, cecal contents, SPF: 21.90 ± 0.122 µmol/g
  SCFA levels, cecal contents, SPF + P: 43.33 ± 12.17 µmol/g
  SCFA levels, cecal contents, SPF + Vanco: 1.851 ± 1.41 µmol/g
T cell transfer colitis; Ffar2+/+ or Ffar2-/- Treg transferred
  effect on intestinal inflammation (colitis scores): dependent upon Ffar2 expression in Treg
T cell transfer colitis; H&E, compared to control mice
  degrees of colonic crypt injury, inflammation, and hyperplasia: reduced degrees
T cell transfer colitis; T cell transfer colitis
  frequency and number of colonic LP Foxp3+ Treg: increase
T cell transfer colitis; naïve T cells and Treg, vs water alone (P<0.0001)
  weight loss: less severe
T cell transfer colitis; naïve T cells and Treg, water alone 5.1±0.6
  mean colitis score: 2.0±0.6
Colonic Treg (cTreg) [3]; Ffar2+/+ control mice
  percentage and number of cTreg: significantly enhanced
Colonic Treg (cTreg) [3]; Ffar2-/- mice
  percentage and number of cTreg: no effect
Colonic Treg (cTreg) [3]; SPF mice, distal ileum lamina propria
  small intestinal Treg numbers: does not affect
Colonic Treg (cTreg) [4]; cTreg from GF mice treated in vivo for three weeks
  Foxp3 and IL-10 expression in cTreg: significant increase
Colonic Treg (cTreg) [4]; [5]
  levels of chemokine receptor CCR9 or α4β7 integrin in cTreg: not altered
  levels of the cTreg homing receptor GPR15: increase
